Assay results from publication PMC12384515 (2023).

Columns and labels:
Assay in all cases: fluorescent intercalator displacement
Conditions in all cases: ethidium bromide (5 μM) displaced; DNA 10 μM/bp; per base
[1] = test system: A5T5 (DNA, duplex) GGGAAAAATTTTTCCC
[2] = test system: G5C5 (DNA, duplex) AAAGGGGGCCCCCTTT
[3] = test system: (AT)5 (DNA, duplex) GGGATATATATATCCC

C50 [1] [µM]	C50 [2] [µM]	C50 [3] [µM]	Structure (SMILES)
2.40 ± 0.02	7.21 ± 0.63	2.30 ± 0.03	CC1=CC(=[N+](C)C)C=CC1=C(c1ccc(N(C)C)cc1C)c1ccc(N(C)C)cc1C
3.13 ± 0.01	3.36 ± 0.07		CN(C)c1ccc([C+](c2ccc(N(C)C)c(-c3ccccc3)c2)c2ccc(N(C)C)c(-c3ccccc3)c2)cc1-c1ccccc1
		2.75 ± 0.21	CN(C)c1ccc([C+](c2ccc(N(C)C)cc2)c2ccc(N(C)C)c(-c3ccccc3)c2)cc1
0.52 ± 0.01	0.88 ± 0.01	0.32 ± 0.02	CN(C)c1ccc([C+](c2ccc(N(C)C)cc2)c2ccc3cc(N(C)C)ccc3c2)cc1
